Measured values taken from patent US20220039384A1, “SELECTIVE WEED CONTROL WITH HALAUXIFEN OR 4-AMINO-3-CHLORO-5-FLUORO-6-(4-CHLORO-2-FLUORO-3-METHOXYPHENYL) PYRIDINE-2-CARBOXYLIC ACID OR DERIVATIVES THEREOF IN VINEYARDS OR PERENNIAL CROPS” (Corteva Agriscience LLC, priority 2013, published 2022).

What was measured:
Type in all cases: in vivo
[1] = tested on: CLNCM (Calandrinia ciliata, rock purslane); assay: Field trial, pre-emergence application (February), California vineyards: visual weed control
From the text: (§1) As used herein, selective pre- and post-emergence control of undesirable vegetation means preventing, reducing, killing, or otherwise adversely modifying the development of the undesirable vegetation in the presence of crop plants with limited adverse effect on the crop plants. For example, a broadleaf weed control of 80% (rated visually) with crop injury of less than or equal to 20% (rated visually) would constitute selective control. In some embodiments the adverse effect on crop plants is limited to less than 10% visually rated crop injury. Visual crop injury is a composite rating accounting for all phytotoxic effects including chlorosis, necrosis, growth inhibition, epinasty, delays in maturity and seed or fruit deformity. Visual weed control is a composite rating accounting for reductions in pest plant biomass and/or stand reduction.
(§2) Small plot research experiments were conducted in Fresno, Calif., USA to evaluate the pre-emergence and post-emergence herbicidal weed control activity and the vines crop tolerance to pre-emergence and post-emergence application of Compound I and Compound II to the weeds. Application water volume of 100 to 187 liters per hectare (L/ha) was used for all experiments. All treatments were applied with a standard small plot carbon dioxide (CO2) backpack sprayer. All treatments were tank-mixed with Crop Oil Concentrate (COC), a well known adjuvant, at 2.34 L/ha. Experimental emulsifiable concentrate (EC) formulations were used for Compounds I and II. The dimethylammonium (DMA) salt of glyphosate was used in all trials. Pindar® GT is a commercial formulation containing a pre-mix of penoxsulam+oxyfluorfen (10+476 grams of active ingredient per liter (g ai/L), respectively). Vine crop stage was dormant (no leaves on the vines during the winter) or early spring growth at the time of Compound I or Compound II application. Generally, weeds were not emerged for the pre-emergence treatments or were at the two to six-leaf stage at the time of the post-emergence herbicide application.
(§3) Tables 1, 2 and 6 provide weed control results from pre-emergence applications of Compounds I and/or II prior to weed emergence; Tables 4, 7 and 8 provide weed control results from post-emergence applications of Compounds I and/or II applied to actively growing weeds; Tables 3 and 5 provide vine response data from pre-emergence and post-emergence applications of Compound I respectively.

[2] = tested on: AMSIN (Amsinckia intermedia, coast fiddleneck); assay: as above
From the text: as §1, §2, §3

[3] = tested on: CAPBP (Capsella bursa-pastoris, Shepherd's purse); assay: as above
From the text: as §1, §2, §3

[4] = tested on: VITSS (Vitis spp, grape); assay: Field trial, soil-applied dormant application (December), California vineyards: vine injury and growth response; conditions: applied to the soil
From the text: as §1, §2, §3

[5] = tested on: AMARE (Amaranthus retroflexus, redroot pigweed); assay: Field trial, post-emergence directed dormant application (December), California vineyards: visual weed control
From the text: as §1, §2, §3

[6] = tested on: AMSIN (Amsinckia intermedia, coast fiddleneck); assay: as above
From the text: as §1, §2, §3

[7] = tested on: CHEAL (Chenopodium album, common lambsquarters); assay: as above
From the text: as §1, §2, §3

[8] = tested on: CAPBP (Capsella bursa-pastoris, Shepherd's purse); assay: as above
From the text: as §1, §2, §3

[9] = tested on: IPOSS (Ipomoea spp, morningglory); assay: as above
From the text: as §1, §2, §3

[10] = tested on: SETFA (Setaria faberi, giant foxtail); assay: Field trial, post-emergence directed spring application (April), California vineyards: visual weed control
From the text: as §1, §2, §3

[11] = tested on: EROCI (Erodium cicutarium, redstem filaree); assay: as above
From the text: as §1, §2, §3

[12] = tested on: AGRRE (Agropyron repens, quackgrass); assay: as above
From the text: as §1, §2, §3

[13] = tested on: ERIBO (Conyza bonariensis, hairy fleabane); assay: as above
From the text: as §1, §2, §3

[14] = tested on: PANCA (Panicum capillare, witchgrass); assay: as above
From the text: as §1, §2, §3

[15] = tested on: MALPA (Malva parviflora, smallflower malva); assay: as above
From the text: as §1, §2, §3

[16] = tested on: MEDPO (Medicago polymorpha, California burclover); assay: Field trial, post-emergence directed spring application (March), California vineyards: visual weed control
From the text: as §1, §2, §3

[17] = tested on: STEME (Stellaria media, common chickweed); assay: as above
From the text: as §1, §2, §3

[18] = tested on: EROCI (Erodium cicutarium, redstem filaree); assay: as above
From the text: as §1, §2, §3

[19] = tested on: MALPA (Malva parviflora, smallflower malva); assay: as above
From the text: as §1, §2, §3

COC(=O)c1nc(-c2ccc(Cl)c(OC)c2F)cc(N)c1Cl [I—Me, methyl 4-amino-3-chloro-6-(4-chloro-2-fluoro-3-methoxyphenyl)pyridine-2-carboxylate]
% Visual Control 48 DAA CLNCM ([1]; 2.5 g ae/ha): 27.6%
% Visual Control 48 DAA CLNCM ([1]; 5 g ae/ha): 43.3%
% Visual Control 48 DAA CLNCM ([1]; 10 g ae/ha): 86.7%
% Visual Control 48 DAA AMSIN ([2]; 2.5 g ae/ha): 25%
% Visual Control 48 DAA AMSIN ([2]; 5 g ae/ha): 43.3%
% Visual Control 48 DAA AMSIN ([2]; 10 g ae/ha): 36.7%
% Visual Control 48 DAA CAPBP ([3]; 2.5 g ae/ha): 50%
% Visual Control 48 DAA CAPBP ([3]; 5 g ae/ha): 76.7%
% Visual Control 48 DAA CAPBP ([3]; 10 g ae/ha): 90%
VITSS % Visual Injury 124 DAA ([4]; 10 g ae/ha): 0%
VITSS % Visual Injury 184 DAA ([4]; 10 g ae/ha): 15%
VITSS Branch Length (cm) 184 DAA ([4]; 10 g ae/ha): 187 cm
VITSS Internode Length (cm) 184 DAA ([4]; 10 g ae/ha): 7 cm
VITSS Yield (Lbs) 236 DAA ([4]; 10 g ae/ha): 71 Lbs
VITSS % Visual Injury 124 DAA ([4]; 20 g ae/ha): 0%
VITSS % Visual Injury 184 DAA ([4]; 20 g ae/ha): 18%
VITSS Branch Length (cm) 184 DAA ([4]; 20 g ae/ha): 172 cm
VITSS Internode Length (cm) 184 DAA ([4]; 20 g ae/ha): 7 cm
VITSS Yield (Lbs) 236 DAA ([4]; 20 g ae/ha): 63 Lbs
VITSS % Visual Injury 124 DAA ([4]; 40 g ae/ha): 0%
VITSS % Visual Injury 184 DAA ([4]; 40 g ae/ha): 37%
VITSS Branch Length (cm) 184 DAA ([4]; 40 g ae/ha): 125 cm
VITSS Internode Length (cm) 184 DAA ([4]; 40 g ae/ha): 6 cm
VITSS Yield (Lbs) 236 DAA ([4]; 40 g ae/ha): 31 Lbs
% Visual Control 57 DAA AMARE ([5]; 2.5 g ae/ha): 95%
% Visual Control 57 DAA AMARE ([5]; 5 g ae/ha): 96.7%
% Visual Control 57 DAA AMARE ([5]; 10 g ae/ha): 100%
% Visual Control 57 DAA AMSIN ([6]; 2.5 g ae/ha): 38.3%
% Visual Control 57 DAA AMSIN ([6]; 5 g ae/ha): 76.7%
% Visual Control 57 DAA AMSIN ([6]; 10 g ae/ha): 97.3%
% Visual Control 57 DAA CHEAL ([7]; 2.5 g ae/ha): 100%
% Visual Control 57 DAA CHEAL ([7]; 5 g ae/ha): 96.7%
% Visual Control 57 DAA CHEAL ([7]; 10 g ae/ha): 100%
% Visual Control 57 DAA CAPBP ([8]; 2.5 g ae/ha): 91.7%
% Visual Control 57 DAA CAPBP ([8]; 5 g ae/ha): 99.3%
% Visual Control 57 DAA CAPBP ([8]; 10 g ae/ha): 100%
% Visual Control 57 DAA IPOSS ([9]; 2.5 g ae/ha): 57.8%
% Visual Control 57 DAA IPOSS ([9]; 5 g ae/ha): 65%
% Visual Control 57 DAA IPOSS ([9]; 10 g ae/ha): 66.7%
% Visual Control 60 DAA SETFA ([10]; 5 g ae/ha): 98%
% Visual Control 60 DAA SETFA ([10]; 10 g ae/ha): 80%
% Visual Control 60 DAA SETFA ([10]; 20 g ae/ha): 97%
% Visual Control 60 DAA EROCI ([11]; 5 g ae/ha): 62%
% Visual Control 60 DAA EROCI ([11]; 10 g ae/ha): 70%
% Visual Control 60 DAA EROCI ([11]; 20 g ae/ha): 86%
% Visual Control 60 DAA AGRRE ([12]; 5 g ae/ha): 87%
% Visual Control 60 DAA AGRRE ([12]; 10 g ae/ha): 80%
% Visual Control 60 DAA AGRRE ([12]; 20 g ae/ha): 83%
% Visual Control 60 DAA ERIBO ([13]; 5 g ae/ha): 97%
% Visual Control 60 DAA ERIBO ([13]; 10 g ae/ha): 95%
% Visual Control 60 DAA ERIBO ([13]; 20 g ae/ha): 93%
% Visual Control 60 DAA PANCA ([14]; 5 g ae/ha): 82%
% Visual Control 60 DAA PANCA ([14]; 10 g ae/ha): 88%
% Visual Control 60 DAA PANCA ([14]; 20 g ae/ha): 86%
% Visual Control 60 DAA MALPA ([15]; 5 g ae/ha): 75%
% Visual Control 60 DAA MALPA ([15]; 10 g ae/ha): 72%
% Visual Control 60 DAA MALPA ([15]; 20 g ae/ha): 73%
% Visual Control 59 DAA MEDPO ([16]; 2.5 g ae/ha): 100%
% Visual Control 59 DAA MEDPO ([16]; 5 g ae/ha): 100%
% Visual Control 59 DAA MEDPO ([16]; 10 g ae/ha): 100%
% Visual Control 59 DAA STEME ([17]; 2.5 g ae/ha): 46.7%
% Visual Control 59 DAA STEME ([17]; 5 g ae/ha): 94%
% Visual Control 59 DAA STEME ([17]; 10 g ae/ha): 95.7%
% Visual Control 59 DAA EROCI ([18]; 2.5 g ae/ha): 43.3%
% Visual Control 59 DAA EROCI ([18]; 5 g ae/ha): 89.7%
% Visual Control 59 DAA EROCI ([18]; 10 g ae/ha): 94%
% Visual Control 59 DAA MALPA ([19]; 2.5 g ae/ha): 80%
% Visual Control 59 DAA MALPA ([19]; 5 g ae/ha): 90%
% Visual Control 59 DAA MALPA ([19]; 10 g ae/ha): 96.7%
